Measurements taken from the NIST ThermoML archive (doi:10.1016/j.jct.2006.01.012).
± gives the expanded uncertainty stated by the source.

Conditions: Liquid; for viscosity: Capillary tube (Ostwald / Ubbelohde) method; for mass density: isochoric method

CCCCCCC [heptane]
Conditions	mass density [kg/m3]	viscosity [mPa·s]
298.24 K, 100 kPa	–	0.388 ± 0.013
302.46 K, 100 kPa	675.91 ± 0.82	–
306.79 K, 5000 kPa	–	0.3779 ± 0.012
306.79 K, 10000 kPa	–	0.4013 ± 0.013
307.61 K, 4760 kPa	676.1 ± 0.8	–
307.61 K, 11941 kPa	683.2 ± 0.8	–
314.57 K, 100 kPa	665.62 ± 0.81	–
323.93 K, 100 kPa	–	0.2979 ± 0.0098
329.71 K, 100 kPa	652.43 ± 0.8	–
337.54 K, 5000 kPa	–	0.28 ± 0.01
337.54 K, 10000 kPa	–	0.2978 ± 0.0098
342.94 K, 100 kPa	640.61 ± 0.78	–
348.64 K, 100 kPa	–	0.2354 ± 0.0078
353.76 K, 100 kPa	630.86 ± 0.77	–
369.35 K, 5000 kPa	–	0.2116 ± 0.007
369.35 K, 10000 kPa	–	0.2259 ± 0.0075
387 K, 5783 kPa	610 ± 0.7	–
387 K, 12460 kPa	620.7 ± 0.8	–
407.85 K, 5000 kPa	–	0.1595 ± 0.0053
407.85 K, 10000 kPa	–	0.1718 ± 0.0057
449.64 K, 5000 kPa	–	0.122 ± 0.004
449.64 K, 10000 kPa	–	0.1338 ± 0.0045
450.12 K, 4350 kPa	543.7 ± 0.7	–
450.12 K, 11492 kPa	564.4 ± 0.7	–
473.54 K, 5000 kPa	–	0.1012 ± 0.0035
473.54 K, 10000 kPa	–	0.113 ± 0.004
500.47 K, 6791 kPa	492.7 ± 0.6	–
500.47 K, 10720 kPa	512.8 ± 0.6	–

CCCCCCCC [octane]
Conditions	mass density [kg/m3]	viscosity [mPa·s]
298.24 K, 100 kPa	–	0.508 ± 0.017
301.84 K, 100 kPa	695.24 ± 0.85	–
308.72 K, 5000 kPa	–	0.4786 ± 0.016
308.72 K, 10000 kPa	–	0.5043 ± 0.017
311.89 K, 4680 kPa	691.6 ± 0.8	–
311.89 K, 10642 kPa	697.4 ± 0.9	–
316.49 K, 100 kPa	683.55 ± 0.83	–
323.93 K, 100 kPa	–	0.3829 ± 0.013
329.76 K, 100 kPa	672.69 ± 0.82	–
340.94 K, 100 kPa	663.24 ± 0.81	–
348.64 K, 100 kPa	–	0.3034 ± 0.01
349.46 K, 5000 kPa	–	0.3187 ± 0.01
349.46 K, 10000 kPa	–	0.3364 ± 0.011
358.76 K, 100 kPa	648.1 ± 0.8	–
367.61 K, 5873 kPa	648.8 ± 0.8	–
367.61 K, 11461 kPa	656.2 ± 0.8	–
394.81 K, 5000 kPa	–	0.2197 ± 0.0073
394.81 K, 10000 kPa	–	0.2334 ± 0.0077
436.86 K, 5000 kPa	–	0.1672 ± 0.0056
436.86 K, 10000 kPa	–	0.1799 ± 0.006
437.97 K, 6430 kPa	589.6 ± 0.7	–
437.97 K, 11084 kPa	599.5 ± 0.7	–
467.46 K, 5000 kPa	–	0.1338 ± 0.0045
467.46 K, 10000 kPa	–	0.1458 ± 0.0049
516.64 K, 5712 kPa	505.4 ± 0.6	–
516.64 K, 9791 kPa	525.2 ± 0.6	–
